Test [1] deals with T1, DNA topoisomerase I (Bos taurus) (UniProt F1MN93).
T1 sequence (whole entry): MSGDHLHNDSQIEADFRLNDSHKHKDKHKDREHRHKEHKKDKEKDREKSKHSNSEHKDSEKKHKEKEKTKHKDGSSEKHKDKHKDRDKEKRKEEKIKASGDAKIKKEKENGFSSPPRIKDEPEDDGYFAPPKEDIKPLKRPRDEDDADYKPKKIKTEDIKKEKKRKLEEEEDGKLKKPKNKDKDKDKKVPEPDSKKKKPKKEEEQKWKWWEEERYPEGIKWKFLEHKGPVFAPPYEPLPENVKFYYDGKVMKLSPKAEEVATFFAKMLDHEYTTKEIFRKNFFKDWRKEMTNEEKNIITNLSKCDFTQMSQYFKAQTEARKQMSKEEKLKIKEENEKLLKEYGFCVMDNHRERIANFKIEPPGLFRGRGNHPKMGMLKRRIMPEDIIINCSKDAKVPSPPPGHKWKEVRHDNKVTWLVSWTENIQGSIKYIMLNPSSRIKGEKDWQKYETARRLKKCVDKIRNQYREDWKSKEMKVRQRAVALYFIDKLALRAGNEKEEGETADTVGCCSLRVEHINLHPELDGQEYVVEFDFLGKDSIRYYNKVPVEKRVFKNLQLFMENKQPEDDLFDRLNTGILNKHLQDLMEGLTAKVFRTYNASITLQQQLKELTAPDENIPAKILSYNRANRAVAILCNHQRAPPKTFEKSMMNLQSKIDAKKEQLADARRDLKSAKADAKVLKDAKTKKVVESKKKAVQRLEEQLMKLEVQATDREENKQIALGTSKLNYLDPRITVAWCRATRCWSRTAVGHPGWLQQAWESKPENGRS
The experiment in a line: Inhibition of calf thymus Top1 assessed as reduction in Top1-supercoiled pBR322 DNA covalent cleavage formation at 25 to 50 uM measured after 30 mins by electrophoretic mobility shift assay.

Test [2] concerns the target T1, DNA topoisomerase I (Bos taurus). The experiment in a line: Inhibition of calf thymus Top1-mediated supercoiled pBR322 DNA cleavage assessed as nicked DNA content at 50 uM measured after 30 mins by ethidium bromide staining agarose gel electrophoresis. More on the design: scale not given: the % may be the effect or the level left.
Another test has as its system HCT-116. The experiment in a line: Cytotoxicity against human HCT116 cells assessed as growth inhibition after 72 hrs by MTT assay. The conditions noted are these: HCT-116, 72 h. It is filed as functional. A general note: Tetrazolium dyes change colour on reduction, which living cells bring about.
For test [3], the system named is MCF7. The experiment in a line: Induction of DNA damage in human MCF7 cells assessed as increase in gammaH2AX foci formation up to 9 uM measured after 12 hrs by immunofluorescence assay. It is filed as functional, cell-based.
Test [4] has as its target T1, DNA topoisomerase I (Bos taurus). Briefly: Inhibition of calf thymus Top1 assessed as reduction in supercoiled pBR322 DNA relaxation measured after 30 mins by agarose gel electrophoresis.
Test [5] shares this target. The experiment in a line: Inhibition of calf thymus Top1-mediated supercoiled pBR322 DNA cleavage assessed as nicked DNA content at 25 uM measured after 30 mins by ethidium bromide staining agarose gel electrophoresis. Further details: scale not given: the % may be the effect or the level left.
A further test deals with A549. Briefly: Cytotoxicity against human A549 cells assessed as growth inhibition after 72 hrs by MTT assay. Format: functional. Particulars: A549, 72 h.
Test [6] relates to MCF7. The experiment in a line: Cytotoxicity against human MCF7 cells assessed as reduction in cell viability after 72 hrs by MTT assay. Format: functional. Particulars: MCF7, 72 h.
Test [7] addresses T1, DNA topoisomerase I (Bos taurus). The experiment in a line: Inhibition of calf thymus Top1 assessed as reduction in supercoiled pBR322 DNA relaxation at 100 uM measured after 30 mins by agarose gel electrophoresis relative to camptothecin.
In test [8] the test system is MCF7. The experiment in a line: Synergistic antiproliferative activity against human MCF7 cells assessed as combination index at 50 to 100 uM after 72 hrs in presence of TOP1 inhibitor topotecan by MTT assay. Format: functional.
Test [9] addresses Tyrosyl-DNA phosphodiesterase 1 (Homo sapiens, UniProt Q9NUW8). Briefly: Inhibition of TDP1 (unknown origin) expressed in Escherichia coli BL21 (DE3) using 5'-FAM-AGGATCTAAAAGACTT-BHQ-3' as substrate preincubated for 30 mins followed by substrate addition by fluorescence assay.
Test [10] relates to MCF7. Briefly: Synergistic antiproliferative activity against human MCF7 cells assessed as combination index at 12.5 to 50 uM after 72 hrs in presence of TOP1 inhibitor topotecan by MTT assay. Format: functional.
Test [11] concerns MCF7. The experiment in a line: Induction of DNA damage in human MCF7 cells assessed as increase in gammaH2AX foci formation at 0.5 uM measured after 12 hrs by immunofluorescence assay. Format: functional, cell-based.

Molecules are shown by their SMILES. pIC50: −log10 of the molar value. Calls of active or inactive are those of the source. The calls are words filed in the database; no cut-off is given here.

Sequence of Tyrosyl-DNA phosphodiesterase 1 (Q9NUW8 whole entry): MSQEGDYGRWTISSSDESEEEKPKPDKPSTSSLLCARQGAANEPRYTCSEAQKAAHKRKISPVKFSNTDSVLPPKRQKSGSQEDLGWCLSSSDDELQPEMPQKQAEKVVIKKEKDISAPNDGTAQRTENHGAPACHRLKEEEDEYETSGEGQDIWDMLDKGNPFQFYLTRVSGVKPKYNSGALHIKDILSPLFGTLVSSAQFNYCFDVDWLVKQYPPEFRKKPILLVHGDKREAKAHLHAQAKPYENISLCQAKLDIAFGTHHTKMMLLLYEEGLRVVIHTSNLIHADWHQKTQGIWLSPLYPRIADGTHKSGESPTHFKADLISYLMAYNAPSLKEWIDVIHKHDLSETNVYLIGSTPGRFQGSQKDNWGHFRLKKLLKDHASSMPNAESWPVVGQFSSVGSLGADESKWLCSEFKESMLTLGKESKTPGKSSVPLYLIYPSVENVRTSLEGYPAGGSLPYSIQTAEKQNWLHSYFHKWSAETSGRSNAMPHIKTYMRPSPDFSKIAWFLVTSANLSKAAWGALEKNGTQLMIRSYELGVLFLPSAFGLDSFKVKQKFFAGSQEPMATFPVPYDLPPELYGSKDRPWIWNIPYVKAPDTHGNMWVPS

For `C[C@H]1[C@H](C)CC[C@]2(C(=O)O)CC[C@]3(C)C(=CC[C@@H]4[C@@]5(C)CCC(=O)C(C)(C)[C@@H]5CC[C@]43C)[C@H]12` [URSONIC ACID], the inhibition (commonly the percentage by which the read-out fell short of the control) in test [1] is “Active”. For the same compound, the Activity was 9% in test [2] and 11% in [5]. Moreover, the GI50 (usually the concentration that inhibits growth by half) came out at 5.3 µM in the test on HCT-116, 57 µM in the test on A549 and 12 µM in the test with MCF7 [6]. Moreover, the outcome in the test on MCF7 [3] was inactive. In addition, the inhibition result was “Dose-dependent effect” in test [4] and over 90% in test [7].
For the compound `O=C(/C=C/c1ccc(O)cc1)c1ccc(O)cc1O` [ISOLIQUIRITIGENIN], the CI with MCF7 [8] is on record as under 1. Moreover, the pIC50 (in general, the negative decadic logarithm of the IC50, by convention in mol/L) in test [9] was 4.26. Further, the GI50 in the test with HCT-116 was 39 µM; with A549 it was 87 µM; in the test with MCF7 [6], over 100 µM. The inhibition in [7] is 30 to 59%.
In test [9], `COc1cc(O)ccc1/C=C/C(=O)c1ccc(O)cc1` [ECHINATIN] gave a pIC50 of 4.35. Moreover, the GI50 in the test on HCT-116 amounted to 64 µM; in the test with A549, 36 µM; with MCF7 [6], 43 µM. Also, in the test on MCF7 [10], the CI is on record as under 0.3. Further, the inhibition in test [7] lay within 30 to 59%.
`CC[C@@]1(O)C(=O)OCc2c1cc1n(c2=O)Cc2cc3ccccc3nc2-1`: the Activity in test [2] came to 18%; in [5], 16%. Besides, the result with MCF7 [11] was Active.

Source of the values: ChEMBL document CHEMBL4622855, “Secondary metabolites from Isodon ternifolius (D. Don) Kudo and their anticancer activity as DNA topoisomerase IB and Tyrosyl-DNA phosphodiesterase 1 inhibitors” (Bioorg Med Chem, 2020).
